# Like-named read-outs stand apart in the source and are kept apart here.
# Assays:
# [1] = 2nd Phase I study, single i.v. dose 48 or 150 mg, healthy male volunteers; format: in vivo, human; details: for AUC∞/Dose: normalized for dose (mg/kg); for clearance / Cmax / MRT / AUC / AUC(0-inf) / half-life / Vd: male, human, plasma; for Vd: read-out: Vss
# Experimental: (§1) Pharmacokinetic parameters were estimated by a non-compartmental method using WinNonlin Professional version 3.2 (Pharsight Corp., Mountain View, Calif.). The maximum plasma concentration (Cmax), when the drug is administered by infusion, is the concentration at the end of infusion. The Cmax following intravenous bolus administration is the value estimated by the software to be the concentration at t=0. The terminal slope (X) was estimated by linear regression through the last time points and used to calculate the terminal half-life (t1/2) from the following equation: t1/2=0.693/λ The area under the curve from time of dosing through the last time point (AUCz) was calculated by the linear trapezoid method. The AUC extrapolated to infinity (AUC∞) was calculated from the following equation: AUC∞=AUCz+Cz/λ where Cz is the concentration at the last time point predicted by the linear regression. AUC∞ was normalized for dose (mg/kg) and presented as AUC∞/Dose. Mean residence time (MRT), when the drug is administered by infusion is described by the following equation: MRT=(AUMC/AUC)−(TI)/2 Mean residence time after i.v. bolus administration is described by the following equation: MRT=(AUMC/AUC) where AUMC is the area under the first moment curve and TI is the length of infusion. Plasma clearance (CL), and the apparent volume of distribution at steady state (Vss) were calculated from the following equations: CL=Dose/AUC∞ Vss=MRT×CL
# A second human Phase I study involving 24 healthy male volunteers was carried out to compare the pharmacokinetics of dexanabinol following a single i.v. dose of 48 mg or 150 mg. The subjects were divided into two groups of 12 subjects each. Each group was premedicated with ATOSIL® 25 mg (Promethazine H1 blocker), and ZANTAC® 50 mg (Ranitidine H2 blocker) intravenously, followed 15 minutes later by a single short intravenous infusion of dexanabinol lasting 15 minutes. Blood samples for pharmacokinetic assays for dexanabinol were collected immediately before premedication (T=0), immediately after dosing (T=0+) (at the end of the infusion), at 5, 10, 20, 30, 45, and 60 min, and 2, 4, 6, 8, 12, 16, 24, 48, 72 and 96 hr post-dosing. Blood was also collected from four subjects from group 2 ([…]) on Days 6, 10 and 14. For both dose levels, initial rapid declines in plasma concentration followed by a progressively slower decline were observed.
# Pharmacokinetic parameters were estimated by non-compartmental methods up to 96 hr post-infusion, using WinNonlin Professional version 3.2 (Pharsight Corp., Mountain View, Calif., USA).
# [2] = single dose toxicity and pharmacokinetics, monkey; format: in vivo, Cynomolgus monkeys; details: for AUC(0-inf) / Cmax: plasma, single i.v. 50 mg/kg (NOAEL); for AUC∞ Ratio to Phase I / Cmax Ratio to Phase I / Cmax Ratio to Phase II: single i.v. 50 mg/kg; for AUC∞ Ratio to Phase I / Cmax Ratio to Phase I: vs human 150 mg Phase I; for Cmax Ratio to Phase II: vs human 150 mg Phase II
# Experimental: The pharmacokinetics of dexanabinol of high enantiomeric purity formulated in CREMOPHOR EL®:ethanol as described in Example 4 were investigated in rats, rabbits, and monkeys following intravenous administration of single doses, and 14 and 28 days of repeated dosing. Human pharmacokinetics was studied during Phase I and Phase II clinical studies. Dexanabinol used in the pharmacokinetic studies was formulated as drug concentrates of 50 and 100 mg/ml and diluted with sterile 0.9% NaCl solution prior to intravenous (i.v.) administration to the desired final doses. Determination of dexanabinol concentrations in plasma and brain extracts was carried out using a validated Gas Chromatography-Mass Spectra (GC-MS) assay following solid phase extraction of the drug and derivatization. The limit of quantitation of the assay is 0.1 ng/ml.
# as §1
# Table 6 summarizes the maximum plasma concentration (Cmax) and the area under the plasma concentration versus time curve (AUC) observed at the NOAEL doses cited above, as well as the animal to human exposure ratios (ER) for dexanabinol of high enantiomeric purity, expressed as the ratio of the pharmacokinetic (PK) parameter to that observed for a 150 mg dose in a Phase I study in human volunteers and in Phase II study in patients suffering from severe traumatic brain injury (TBI).
# [3] = oral bioavailability, hard gelatin capsules, minipig model; format: in vivo; details: plasma, 40 mg/kg
# Experimental: The percentage of oral bioavailability was calculated using the following equation: % F=[AUCoral/Doseoral]/[AUCIV/DoseIV] Non-human Pharmacokinetic Studies.
# Dexanabinol of high enantiomeric purity (lot # AC9001HU) filled in hard gelatin capsules have shown good oral bioavailability. A pharmacokinetic study for oral bioavailability of dexanabinol in large animals using the minipig model (the best animal model for oral absorption of drugs) was carried out. The animals (n=3) after 8 hours of food deprivation were administered orally with hard gelatin capsules containing dexanabinol of high enantiomeric purity at a dose of 40 mg/kg. Dexanabinol plasma levels were determined using a validated GC-MS assay up to 48 hours following administration. […] Pharmacokinetic analysis was done using the non-compartmental model analysis (WinNonlin software). Linear trapezoidal rule was used to compute AUC and AUMC.
# [4] = human Phase I, 150 mg single i.v., reference itself
# [5] = iv, 48 mg single i.v. infusion, healthy volunteers, mean ± SE
# [6] = iv, 48 mg single i.v. infusion, healthy volunteers, mean ± SE, up to 96 hr
# [7] = iv, 150 mg single i.v. infusion, healthy volunteers, mean ± SE
# [8] = iv, 150 mg single i.v. infusion, healthy volunteers, mean ± SE, up to 96 hr
# [9] = both sexes, cynomolgus monkey, iv, monkey male & female
# [10] = cynomolgus monkey, iv, monkey female
# [11] = cynomolgus monkey, iv, monkey male
compound,measurement,setting,value
"CCCCCCC(C)(C)c1cc(O)c2c(c1)OC(C)(C)[C@H]1CC=C(CO)C[C@H]21 [dexanabinol, 1,1-dimethylheptyl-(3S,4S)-7-hydroxy-Δ^6-tetrahydrocannabinol]",30 min plasma values as % of the end of infusion levels,[1]; 48 mg and 150 mg,about 11%
same,AUC∞/Dose,"[1]; 48 mg single i.v. infusion, healthy volunteers, mean ± SE","78,137 ± 4,305 ng × min/ml"
same,AUC∞/Dose,"[1]; 150 mg single i.v. infusion, healthy volunteers, mean ± SE","93,408 ± 4,224 ng × min/ml"
same,AUC∞ Ratio to Phase I,[1]; [4],1.0
same,Cmax Ratio to Phase I,[1]; [4],1.0
same,clearance,"[1]; intravenous, 48 mg and 150 mg, read-out: Total plasma clearance (CL), average across the two dose groups",12 mL/min/kg
same,Cmax,"[1]; intravenous, after the 48 mg dose (0.63 mg/kg), read-out: Maximum plasma concentrations (Cmax)",1230 ng/mL
same,Cmax,"[1]; intravenous, at 150 mg (2.05 mg/kg), read-out: Maximum plasma concentrations (Cmax)",5000 ng/mL
same,MRT,[1]; [5],8.4 ± 0.5 h
same,AUC,[1]; [6],811 ng·h/mL
same,AUC(0-inf),[1]; [6],824 ng·h/mL
same,half-life,[1]; [6],1870 ± 216 min
same,Cmax,"[1]; iv, 48 mg single i.v. infusion, healthy volunteers, mean ± SE, up to 96 hr, read-out: Cmax",1230 ng/mL
same,clearance,"[1]; iv, 48 mg single i.v. infusion, healthy volunteers, mean ± SE, read-out: CL",13.2 ± 0.7 mL/min/kg
same,Vd,[1]; [5],6.6 ± 0.5 L/kg
same,MRT,[1]; [7],6.9 ± 0.4 h
same,AUC,[1]; [8],3180 ng·h/mL
same,AUC(0-inf),[1]; [8],3210 ng·h/mL
same,half-life,[1]; [8],1400 ± 108 min
same,Cmax,"[1]; iv, 150 mg single i.v. infusion, healthy volunteers, mean ± SE, up to 96 hr, read-out: Cmax",5010 ng/mL
same,clearance,"[1]; iv, 150 mg single i.v. infusion, healthy volunteers, mean ± SE, read-out: CL",10.9 ± 0.5 mL/min/kg
same,Vd,[1]; [7],4.5 ± 0.4 L/kg
same,safety in human subjects,[1]; the two phase I studies,"safe, well tolerated and no psychomimetic side effects were detected"
same,AUC(0-inf),[2]; [9],127 µg·h/mL
same,Cmax,[2]; [9],171 µg/mL
same,NOAEL,"[2]; cynomolgus monkey, in vivo, iv, single dose i.v., read-out: no observed adverse effect level (NOAEL)",50 mg/kg
same,AUC(0-inf),[2]; [10],136 µg·h/mL
same,Cmax,[2]; [10],175 µg/mL
same,AUC(0-inf),[2]; [11],117 µg·h/mL
same,Cmax,[2]; [11],167 µg/mL
same,AUC∞ Ratio to Phase I,[2]; monkey female,42.4
same,Cmax Ratio to Phase I,[2]; monkey female,35.0
same,Cmax Ratio to Phase II,[2]; monkey female,89.0
same,AUC∞ Ratio to Phase I,[2]; monkey male & female,39.5
same,Cmax Ratio to Phase I,[2]; monkey male & female,34.2
same,Cmax Ratio to Phase II,[2]; monkey male & female,86.9
same,AUC∞ Ratio to Phase I,[2]; monkey male,36.6
same,Cmax Ratio to Phase I,[2]; monkey male,33.4
same,Cmax Ratio to Phase II,[2]; monkey male,84.9
same,AUC,[3]; n=3,4210 ng·h/mL
same,Cmax,[3]; n=3,271 ± 102 ng/mL
same,MRT,[3]; n=3,12.1 ± 1.15 h
same,half-life,[3]; n=3,448 ± 63.6 min
same,bioavailability,"[3]; oral, n=3, read-out: % F (oral bioavailability compared to i.v. injection)",~12%

# From US20070060636A1, “High enantiomeric purity dexanabinol for pharmaceutical compositions” (priority 2002, published 2007)
